Patent US9249114B2, “Thiazole derivatives” (Merck Patent GmbH, priority 2011, dated 2016)

What was measured:
[1] = biological target: TANK binding kinase (TBK1) (Homo sapiens (Human), UniProt Q9UHD2); assay: TBK1 enzyme assay (384-well Flashplate kinase assay); type: biochemical; conditions: 10 μM ATP, 120 Min at 30° C.
Experimental: Test for the Inhibition of TBK1
The kinase assay is performed as 384-well Flashplate assay (for e.g. Topcount measurement. 0.6 nM TANK binding kinase (TBK1), 800 nM biotinylated MELK-derived peptide (Biotin-Ah-Ah-[…]) SEQ ID NO: 2 and 10 μM ATP (spiked with 0.25 μCi ^33P-ATP/well) are incubated in a total volume of 50 μl (10 mM MOPS, 10 mM Mg-acetat, 0.1 mM EGTA, 1 mM DTT, 0.02% Brij35, 0.1% BSA, pH 7.5) with or without test compound for 120 Min at 30° C. The reaction is stopped with 25 μl 200 mM EDTA. After 30 Min at room temperature the liquid is removed and each well washed thrice with 100 μl 0.9% sodium chloride solution. Nonspecific reaction is determined in presence of 100 nM Staurosporine. Radioactivity is measured in a Topcount (PerkinElmer). Results (e.g. IC50-values) are calculated with program tools provided by the IT-department (e.g. AssayExplorer, Symyx).

IKKε = IKKε (Homo sapiens (Human), UniProt Q14164); assay: IKKε kinase assay (384-well Flashplate); type: biochemical; conditions: 10 μM ATP, 2 hours at 30° C.; read-out: IKKε enzyme assay IC50
Sequence of IKKε (Q14164 whole entry): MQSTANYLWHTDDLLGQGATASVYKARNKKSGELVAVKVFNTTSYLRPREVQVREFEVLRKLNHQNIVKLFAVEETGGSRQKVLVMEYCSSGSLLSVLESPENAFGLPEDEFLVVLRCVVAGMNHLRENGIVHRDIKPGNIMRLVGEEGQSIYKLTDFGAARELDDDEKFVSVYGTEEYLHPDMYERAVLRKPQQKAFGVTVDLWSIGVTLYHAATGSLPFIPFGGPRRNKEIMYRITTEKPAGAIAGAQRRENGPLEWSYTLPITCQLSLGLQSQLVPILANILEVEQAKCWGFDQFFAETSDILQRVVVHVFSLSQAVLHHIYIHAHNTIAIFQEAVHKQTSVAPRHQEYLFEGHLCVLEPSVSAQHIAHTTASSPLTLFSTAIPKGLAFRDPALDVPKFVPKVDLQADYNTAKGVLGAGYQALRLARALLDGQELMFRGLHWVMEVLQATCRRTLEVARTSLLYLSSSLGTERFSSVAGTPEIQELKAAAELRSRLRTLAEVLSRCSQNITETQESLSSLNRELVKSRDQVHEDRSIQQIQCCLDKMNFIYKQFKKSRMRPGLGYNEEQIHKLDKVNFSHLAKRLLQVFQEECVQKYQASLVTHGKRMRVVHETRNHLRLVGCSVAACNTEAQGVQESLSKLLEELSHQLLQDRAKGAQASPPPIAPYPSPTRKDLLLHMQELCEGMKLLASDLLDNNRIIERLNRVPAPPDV
Experimental: Test for the Inhibition of IKKε
IKKε—Kinase Assay (IKKepsilon)
The kinase assay is performed either as 384-well Flashplate assay (for e.g. Topcount measurement). […] The reaction is stopped with 25 μl 200 mM EDTA. After 30 Min at room temperature the liquid is removed and each well washed thrice with 100 μl 0.9% sodium chloride solution. […] Radioactivity is measured with Topcount (PerkinElmer). Results (e.g. IC50-values) are calculated with program tools provided by the IT-department (e.g. AssayExplorer, Symyx).

Sequence of TANK binding kinase (TBK1) (Q9UHD2 whole entry): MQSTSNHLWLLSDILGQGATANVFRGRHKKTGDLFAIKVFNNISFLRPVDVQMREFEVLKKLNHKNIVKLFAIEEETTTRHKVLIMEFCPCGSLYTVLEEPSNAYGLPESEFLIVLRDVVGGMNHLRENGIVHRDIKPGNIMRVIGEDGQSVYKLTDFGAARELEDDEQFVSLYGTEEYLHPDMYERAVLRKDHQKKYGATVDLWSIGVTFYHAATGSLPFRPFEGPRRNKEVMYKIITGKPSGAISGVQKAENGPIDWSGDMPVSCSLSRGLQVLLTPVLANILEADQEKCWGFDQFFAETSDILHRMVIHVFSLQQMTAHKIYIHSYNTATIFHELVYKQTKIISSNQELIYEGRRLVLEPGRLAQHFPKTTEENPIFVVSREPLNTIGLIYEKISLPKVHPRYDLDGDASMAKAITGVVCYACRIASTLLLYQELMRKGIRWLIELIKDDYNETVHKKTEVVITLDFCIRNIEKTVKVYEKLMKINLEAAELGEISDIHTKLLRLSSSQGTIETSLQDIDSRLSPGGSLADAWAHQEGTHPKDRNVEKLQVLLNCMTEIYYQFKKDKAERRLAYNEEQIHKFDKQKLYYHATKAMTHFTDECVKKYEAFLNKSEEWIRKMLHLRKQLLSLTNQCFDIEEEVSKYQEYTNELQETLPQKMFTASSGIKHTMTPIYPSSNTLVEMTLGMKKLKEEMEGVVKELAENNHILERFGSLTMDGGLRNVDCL

Compound	IC50 [1] [nM]	IC50 (IKKε) [nM]
CN1CCN(Cc2ccc(C(=O)Nc3sc(-c4ccncc4)nc3C#N)cc2)CC1 [Compound A45, N-(4-cyano-2-pyridin-4-yl-thiazol-5-yl)-4-(4-methyl-piperazin-1-ylmethyl)-benzamide]	8200	–
CC(C)(C)OC(=O)N1CCN(c2ccc(C(=O)Nc3sc(-c4ccncc4)nc3C(N)=O)cn2)CC1 [Compound A39, 4-[5-(4-Carbamoyl-2-pyridin-4-yl-thiazol-5-ylcarbamoyl)-pyridin-2-yl]-piperazine-1-carboxylic acid tert-butyl ester]	1200	–
Cc1cc(-c2nc(C(N)=O)c(NC(=O)c3ccc(CN4CCN(C)CC4)cc3)s2)cc(C)n1 [Compound A16, 2-(2,6-dimethyl-pyridin-4-yl)-5-[4-(4-methyl-piperazin-1-ylmethyl)-benzoylamino]-thiazole-4-carboxylic acid amide]	–	3800
CN(C)C(=O)CCCCc1ccc(C(=O)Nc2sc(-c3ccncc3)nc2C(N)=O)cc1 [Compound A25, 5-[4-(4-dimethylcarbamoyl-butyl)-benzoylamino]-2-pyridin-4-yl-thiazole-4-carboxylic acid amide]	99	–
CN1CCN(C(=O)c2ccc(C(=O)Nc3sc(-c4ccncc4)nc3C(N)=O)cc2)CC1 [Compound A34, 5-[4-(4-methyl-piperazine-1-carbonyl)-benzoylamino]-2-pyridin-4-yl-thiazole-4-carboxylic acid amide]	310	–
CN1CCN(Cc2ccc(C(=O)Nc3sc(-c4ccncc4Br)nc3C(N)=O)cc2)CC1 [Compound A18, 2-(3-bromo-pyridin-4-yl)-5-[4-(4-methyl-piperazin-1-ylmethyl)-benzoylamino]-thiazole-4-carboxylic acid amide]	310	190
CN1CCN(Cc2ccc(C(=O)Nc3sc(-c4ccnc(C(F)(F)F)c4)nc3C(N)=O)cc2)CC1 [Compound A8, 5-[4-(4-methyl-piperazin-1-ylmethyl)-benzoylamino]-2-(2-trifluoromethyl-pyridin-4-yl)-thiazole-4-carboxylic acid amide]	6300	2100
Cc1ccc(C(=O)Nc2sc(-c3ccncc3)nc2C(N)=O)cc1 [Compound A55, 5-(4-methyl-benzoylamino)-2-pyridin-4-yl-thiazole-4-carboxylic acid amide]	10000	5300
CN1CCN(Cc2ccc(C(=O)Nc3sc(-c4ccnc(C#N)c4)nc3C(N)=O)cc2)CC1 [Compound A9, 2-(2-cyano-pyridin-4-yl)-5-[4-(4-methyl-piperazin-1-ylmethyl)-benzoylamino]-thiazole-4-carboxylic acid amide]	2000	740
CN(C)c1ccc(C(=O)Nc2sc(-c3ccncc3)nc2C(N)=O)cc1 [Compound A57, 5-{[4-(dimethylamino)benzoyl]amino}-2-pyridin-4-yl-1,3-thiazole-4-carboxamide]	1800	1600
CN(C)CCNCc1ccc(C(=O)Nc2sc(-c3ccncc3)nc2C(N)=O)cc1 [Compound A31, 5-{4-[(2-dimethylamino-ethylamino)-methyl]-benzoylamino}-2-pyridin-4-yl-thiazole-4-carboxylic acid amide]	210	–
CNC(=O)CCCCc1ccc(C(=O)Nc2sc(-c3ccncc3)nc2C(N)=O)cc1 [Compound A32, 5-[4-(4-methylcarbamoyl-butyl)-benzoylamino]-2-pyridin-4-yl-thiazole-4-carboxylic acid amide]	240	–
NC(=O)c1nc(-c2ccncc2)sc1NC(=O)c1ccccc1 [Compound A56, 5-benzoylamino-2-pyridin-4-yl-thiazole-4-carboxylic acid amide]	3600	–
CN(C)C(=O)CCCCCc1ccc(C(=O)Nc2sc(-c3ccncc3)nc2C(N)=O)cc1 [Compound A35, 5-[4-(5-dimethylcarbamoyl-pentyl)-benzoylamino]-2-pyridin-4-yl-thiazole-4-carboxylic acid amide]	580	–
NC(=O)c1nc(-c2ccncc2)sc1NC(=O)c1ccc(CC2CCN(C(N)=O)CC2)cc1 [Compound A23, 4-[4-(4-carbamoyl-2-pyridin-4-yl-thiazol-5-ylcarbamoyl)-benzyl]-piperidine-1-carboxylic acid amide]	94	–
NC(=O)c1nc(-c2ccncc2)sc1NC(=O)c1ccc(CN2CCCC2)cc1 [Compound A38, 2-pyridin-4-yl-5-(4-pyrrolidin-1-ylmethyl-benzoylamino)-thiazole-4-carboxylic acid amide]	1160	–
COc1ccc(C(=O)Nc2sc(-c3ccncc3)nc2C(N)=O)cc1OC [Compound A41, 5-(3,4-dimethoxy-benzoylamino)-2-pyridin-4-yl-thiazole-4-carboxylic acid amide]	1500	–
NC(=O)c1nc(-c2ccncc2)sc1NC(=O)c1ccc(CN2CCOCC2)cc1 [Compound A36, 5-(4-morpholin-4-ylmethyl-benzoylamino)-2-pyridin-4-yl-thiazole-4-carboxylic acid amide]	645	–
CN1CCN(Cc2ccc(C(=O)Nc3sc(-c4ccncc4)nc3C(N)=O)cc2)CC1 [Compound A4, 5-[4-(4-methyl-piperazin-1-ylmethyl)-benzoylamino]-2-pyridin-4-yl-thiazole-4-carboxylic acid amide]	300	–
NC(=O)c1nc(-c2ccncc2)sc1NC(=O)c1ccoc1 [Compound A64, 5-(3-furoylamino)-2-pyridin-4-yl-1,3-thiazole-4-carboxamide]	4600	–
COCCNCc1ccc(C(=O)Nc2sc(-c3ccncc3)nc2C(N)=O)cc1 [Compound A33, 5-{4-[(2-methoxy-ethylamino)-methyl]-benzoylamino}-2-pyridin-4-yl-thiazole-4-carboxylic acid amide]	260	–
NC(=O)c1nc(-c2ccncc2)sc1NC(=O)c1ccc(CCCCCC(=O)O)cc1 [Compound A28, 6-[4-(4-carbamoyl-2-pyridin-4-yl-thiazol-5-ylcarbamoyl)-phenyl]-hexanoic acid]	160	–
NC(=O)c1nc(-c2ccncc2)sc1NC(=O)c1cccs1 [Compound A62, 2-pyridin-4-yl-5-[(2-thienylcarbonyl)amino]-1,3-thiazole-4-carboxamide]	2000	–
CC(=O)N1CCC(Cc2ccc(C(=O)Nc3sc(-c4ccncc4)nc3C(N)=O)cc2)CC1 [Compound A30, 5-[4-(1-acetyl-piperidin-4-ylmethyl)-benzoylamino]-2-pyridin-4-yl-thiazole-4-carboxylic acid amide]	200	–
CN1CCN(Cc2ccc(C(=O)Nc3sc(-c4ccnc(Cl)c4)nc3C(N)=O)cc2)CC1 [Compound A5, 2-(2-chloro-pyridin-4-yl)-5-[4-(4-methyl-piperazin-1-ylmethyl)-benzoylamino]-thiazole-4-carboxylic acid amide]	1400	–
NC(=O)c1nc(-c2ccncc2)sc1NC(=O)c1ccc(CC2CCNCC2)cc1 [Compound A29, 5-(4-piperidin-4-ylmethyl-benzoylamino)-2-pyridin-4-yl-thiazole-4-carboxylic acid amide]	190	–
NC(=O)c1nc(-c2ccncc2)sc1NC(=O)c1cnn(CC2CCNCC2)c1 [Compound A44, 5-[(1-piperidin-4-ylmethyl-1H-pyrazole-4-carbonyl)-amino]-2-pyridin-4-yl-thiazole-4-carboxylic acid amide]	7900	–
